Source: patent publication US20250049798A1, “WEE1 PROTEIN KINASE DEGRADATION AGENT AND USE THEREOF” (HANGZHOU GLUBIO PHARMACEUTICAL CO. LTD., priority 2021, published 2025)
pIC50: −log10 of the molar value. Where two headings read alike, the source gives them in different places.

How the values were obtained:
[1] = test system: NCI-H1048 cells; experiment: NCI-H1048 cell proliferation assay (CTG assay); type: cell-based; settings: 120 hours, read-out: CTG cellular assay_H1048: IC50
Method: NCI-H1048 Cell Proliferation Assay (CTG Assay) The following is an example of an assay that can be used to determine the anti-proliferative activity of Wee1 PROTACs in a small cell lung cancer cell line, NCI-H1048 (ATCC Cat #CRL-5853). This cell line was cultured in RPMI-1640 medium supplemented with 10% FBS. About 1,200 NCI-H1048 cells in 50 μL of culture medium were seeded into a 384-well plate (Cat #3764, Corning), pre-spotted with compounds using the Echo 650 liquid handler (Beckman). The dose-response-curve (DRC) typically has 10-points with a highest concentration at 10 μM, and half-log diluted to as low as 0.316 nM, plus a DMSO control. Assay plates were incubated at 37° C. with 5% CO2 for 120 hours. After that, 20 μL of the CellTiter-Glo (CTG) Luminescent Cell Viability Assay Reagent (Cat #G7573, Promega) was added to each well and incubated at room temperature for 30 minutes. Luminescence was then measured with Pherastar microplate reader (BMG Labtech). All percentage of cell growth inhibition curves were processed using Collaborative Drug Discovery Vault.
Cell viability reads in compound-treated wells were normalized to that of DMSO control and expressed as Percent of Control (PoC, y). A four Parameter Logistic Model was used to determine the compound's EC50 and DC50, using the following equation: […]

[2] = biological target: HiBiT tagged Wee1 (Homo sapiens, UniProt P30291); experiment: Wee1 protein degradation assay (HiBiT assay); type: cell-based; settings: for Dmax: maximum percentage of Wee1 degradation, read-out: HiBiT Wee1: Dmax
[3] = engineered HT-1080 cells, 20 hours

Chain of HiBiT tagged Wee1 (P30291 whole entry): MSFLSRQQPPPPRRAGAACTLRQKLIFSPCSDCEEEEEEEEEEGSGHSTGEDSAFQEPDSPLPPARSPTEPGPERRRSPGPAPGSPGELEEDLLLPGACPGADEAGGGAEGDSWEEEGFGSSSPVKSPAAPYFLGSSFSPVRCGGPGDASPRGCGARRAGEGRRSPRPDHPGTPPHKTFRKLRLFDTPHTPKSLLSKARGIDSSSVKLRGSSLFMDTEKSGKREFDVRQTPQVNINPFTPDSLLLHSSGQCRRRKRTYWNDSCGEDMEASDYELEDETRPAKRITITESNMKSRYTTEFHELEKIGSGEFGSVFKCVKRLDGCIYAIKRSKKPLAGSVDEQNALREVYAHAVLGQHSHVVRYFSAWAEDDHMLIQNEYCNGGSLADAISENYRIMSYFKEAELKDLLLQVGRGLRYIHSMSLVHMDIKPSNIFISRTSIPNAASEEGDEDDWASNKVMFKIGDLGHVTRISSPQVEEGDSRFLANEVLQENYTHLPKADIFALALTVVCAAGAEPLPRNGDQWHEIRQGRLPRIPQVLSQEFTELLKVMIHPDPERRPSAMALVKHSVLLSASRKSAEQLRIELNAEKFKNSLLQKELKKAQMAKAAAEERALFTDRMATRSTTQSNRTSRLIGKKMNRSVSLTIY

| Compound | pIC50 ([1]; Homo sapiens) | DC50 [2, 3] [nM] | Dmax [2, 3] [%] | pIC50 [1] | Dmax ([2]; HT-1080, […]) [%] |
| --- | --- | --- | --- | --- | --- |
| C=CCn1c(=O)c2cnc(Nc3ccc(N4CCN(CC5CCN(c6ccc(NC7CCC(=O)NC7=O)cc6Cl)CC5)CC4)cc3)nc2n1-c1ccc2c(n1)[C@@](O)(CC)CC2 (stereo partly shown) [Compound 176] | ≥ 7.60 | < 100 | > 75 |  |  |
| CN1CN(c2c(Cl)cccc2Cl)C(=O)c2cnc(Nc3ccc(N4CCN(CCCNc5cccc6c5C(=O)N(C5CCC(=O)NC5=O)C6=O)CC4)cc3)nc21 (stereo not shown) [Compound 17] | < 7.00 | > 1000 |  |  | < 50 |
| C=CCn1c(=O)c2cnc(Nc3ccc(C4CCN(CC5CCN(c6ccc7c(c6)C(=O)N(C6CCC(=O)NC6=O)C7=O)CC5)CC4)cc3)nc2n1-c1cccc(C(C)(C)O)n1 (stereo not shown) [Compound 21] | 7.00 to 7.60 | < 100 | 50 to 75 |  |  |
| C=CCn1c(=O)c2cnc(Nc3ccc(N4CCN(CC5CCN(c6ccc(NC7CCC(=O)NC7=O)cc6F)CC5)CC4)nc3)nc2n1-c1ccc2c(n1)[C@@](O)(CC)CC2 (stereo partly shown) [Compound 187] | ≥ 7.60 | < 100 | > 75 |  |  |
| O=C1CCC(N2C(=O)c3ccc(N4CCC(CN5CCC(c6ccc(Nc7ncc8c(=O)n(-c9c(Cl)cccc9Cl)c9nccn9c8n7)cc6)CC5)CC4)cc3C2=O)C(=O)N1 (stereo not shown) [Compound 14] | 7.00 to 7.60 | < 100 | 50 to 75 |  |  |
| C=CCn1c(=O)c2cnc(Nc3ccc(N4CCN(CC5CCN(c6cccc7c(C8CCC(=O)NC8=O)nn(C)c67)CC5)CC4)cc3)nc2n1-c1cccc(C(C)(C)O)n1 (stereo not shown) [Compound 117] | ≥ 7.60 | < 100 | > 75 |  |  |
| C=CCn1c(=O)c2cnc(Nc3ccc(N4CCC(CN5CCC(c6ccc(NC7CCC(=O)NC7=O)cc6F)CC5)CC4)cc3)nc2n1-c1cccc(C(C)(C)O)n1 (stereo not shown) [Compound 81] | ≥ 7.60 | < 100 | > 75 |  |  |
| C=CCn1c(=O)c2cnc(Nc3ccc(C4CCN(CN5CCN(c6ccc7c(N8CCC(=O)NC8=O)nn(C)c7c6)CC5)CC4)cc3)nc2n1-c1cccc(C(C)(C)O)n1 [Compound 89] | ≥ 7.60 | < 100 | > 75 |  |  |
| C=CCn1c(=O)c2cnc(Nc3ccc(N4CCN(CC5CCN(c6cc7c(cc6F)c(N6CCC(=O)NC6=O)nn7C)CC5)CC4)nc3)nc2n1-c1ccc2c(n1)[C@](C)(O)CC2 [Compound 197] | ≥ 7.60 | < 100 | > 75 |  |  |
| C=CCn1c(=O)c2cnc(Nc3ccc4c(c3)CN(CC3CCN(c5ccc6c(c5)C(=O)N(C5CCC(=O)NC5=O)C6=O)CC3)CC4)nc2n1-c1cccc(C(C)(C)O)n1 (stereo not shown) [Compound 7] | < 7.00 | > 1000 | < 50 |  |  |
| C=CCn1c(=O)c2cnc(Nc3ccc(N4CCN(CC5CCN(c6ccc(NC7CCC(=O)NC7=O)cc6F)CC5)CC4)cc3)nc2n1-c1ccc2c(n1)[C@@](O)(CC)CC2 (single isomer, unassigned) [Compound 150-A] | ≥ 7.60 | < 100 | > 75 |  |  |
| C=CCn1c(=O)c2cnc(Nc3ccc(N4CCN(CC5CCN(c6ccc7c(C8CCC(=O)NC8=O)nn(C)c7c6)CC5)CC4)cc3)nc2n1-c1cccc(C(C)(C)O)n1 (stereo not shown) [Compound 76] | ≥ 7.60 | < 100 | 50 to 75 |  |  |
| C=CCn1c(=O)c2cnc(Nc3ccc(N4CCN(CC5CCN(c6cc7c(cc6F)c(N6CCC(=O)NC6=O)nn7C)CC5)CC4)cc3)nc2n1-c1ccc2c(n1)[C@@](O)(CC)CC2 [Compound 161] | ≥ 7.60 | < 100 | > 75 |  |  |
| C=CCn1c(=O)c2cnc(Nc3ccc(C4CCN(CC5CCN(Cc6ccc7c(c6)n(C)c(=O)n7C6CCC(=O)NC6=O)CC5)CC4)cc3)nc2n1-c1cccc(C(C)(C)O)n1 (stereo not shown) [Compound 79] | ≥ 7.60 | < 100 | 50 to 75 |  |  |
| C=CCn1c(=O)c2cnc(Nc3ccc(N4CCN(CC5CCN(c6cc7c(cc6F)c(N6CCC(=O)NC6=O)nn7C)CC5)CC4)cc3)nc2n1-c1ccc2c(n1)[C@](C)(O)CC2 [Compound 196] | ≥ 7.60 | < 100 | > 75 |  |  |
| C=CCn1c(=O)c2cnc(Nc3ccc(N4CCN(CCCc5ccc6c(c5)n(C)c(=O)n6C5CCC(=O)NC5=O)CC4)cc3)nc2n1-c1cccc(C(C)(C)O)n1 (stereo not shown) [Compound 46] | 7.00 to 7.60 | < 100 | 50 to 75 |  |  |
| C=CCn1c(=O)c2cnc(Nc3ccc(N4CCC(CN5CCC(c6cccc7c6n(C)c(=O)n7C6CCC(=O)NC6=O)CC5)CC4)cc3)nc2n1-c1ccc2c(n1)[C@@](O)(CC)CC2 (stereo partly shown) [Compound 54] | 7.00 to 7.60 | < 100 | 50 to 75 |  |  |
| C=CCn1c(=O)c2cnc(Nc3ccc(N4CCN(CC5(F)CCN(c6ccc(NC7CCC(=O)NC7=O)cc6F)CC5)CC4)cc3)nc2n1-c1ccc2c(n1)[C@@](O)(CC)CC2 (stereo partly shown) [Compound 166] | 7.00 to 7.60 | < 100 | > 75 |  |  |
| C=CCn1c(=O)c2cnc(Nc3ccc(N4CCN(CC5CCN(c6ncc(NC7CCC(=O)NC7=O)cc6F)CC5)CC4)cc3)nc2n1-c1ccc2c(n1)[C@@](O)(CC)CC2 (stereo partly shown) [Compound 180] | ≥ 7.60 | < 100 | > 75 |  |  |
| C=CCn1c(=O)c2cnc(Nc3ccc(N4CCC(CN5CCC(c6ccc7c(N8CCC(=O)NC8=O)nn(C)c7c6)CC5)CC4)cc3)nc2n1-c1cccc(C(C)(C)O)n1 [Compound 95] | ≥ 7.60 | < 100 | > 75 |  |  |
| CC(C)n1c(=O)c2cnc(Nc3ccc(N4CCN(CC5CCN(c6ccc(NC7CCC(=O)NC7=O)cc6F)CC5)CC4)cc3)nc2n1-c1cccc(C(C)(C)F)n1 (stereo not shown) [Compound 199] | 7.00 to 7.60 | < 100 | > 75 |  |  |
| C=CCn1c(=O)c2cnc(Nc3ccc(C4CCN(CC5CN(c6ccc7c(c6)C(=O)N(C6CCC(=O)NC6=O)C7=O)C5)CC4)cc3)nc2n1-c1cccc(C(C)(C)O)n1 (stereo not shown) [Compound 9] | 7.00 to 7.60 | < 100 | 50 to 75 |  |  |

Further lines, with some results ahead:

| pIC50 ([1]; Homo sapiens) | DC50 [2, 3] [nM] | Dmax [2, 3] [%] | pIC50 [1] | Compound | Dmax ([2]; HT-1080, […]) [%] |
| --- | --- | --- | --- | --- | --- |
| 7.00 to 7.60 | < 100 | 50 to 75 |  | C=CCn1c(=O)c2cnc(Nc3ccc(N4CCN(CC5CCN(c6ccc7c(c6)C(=O)N(C6CCC(=O)NC6=O)C7=O)CC5)CC4)cc3)nc2n1-c1cccc(C(C)(C)O)n1 (stereo not shown) [Compound 8] |  |
| ≥ 7.60 | < 100 | > 75 |  | C=CCn1c(=O)c2cnc(Nc3ccc(N4CCC(CN5CCN(c6ccc(NC7CCC(=O)NC7=O)cc6)CC5)CC4)cc3)nc2n1-c1cccc(C(C)(C)O)n1 (stereo not shown) [Compound 92] |  |
| ≥ 7.60 | < 100 | 50 to 75 |  | C=CCn1c(=O)c2cnc(Nc3ccc(C4CCN(CC5CCN(c6ccc(NC7CCC(=O)NC7=O)cc6)CC5)CC4)cc3)nc2n1-c1cccc(C(C)(C)O)n1 (stereo not shown) [Compound 85] |  |
| ≥ 7.60 | < 100 | > 75 |  | C=CCn1c(=O)c2cnc(Nc3ccc(C4CCN(CC5CCN(c6ccc7c(N8CCC(=O)NC8=O)nn(C)c7c6)CC5)CC4)cc3)nc2n1-c1cccc(C(C)(C)O)n1 [Compound 104] |  |
|  | < 100 |  | ≥ 7.60 | C=CCn1c(=O)c2cnc(Nc3ccc(N4CCC(CN5CCN(c6ccc(NC7CCC(=O)NC7=O)cc6F)CC5)CC4)cc3)nc2n1-c1cccc(C(C)(C)O)n1 (single isomer, unassigned) [Compound 100-B] |  |
| ≥ 7.60 | < 100 | > 75 |  | C=CCn1c(=O)c2cnc(Nc3ccc(N4CCC(N5CCC(c6ccc(NC7CCC(=O)NC7=O)cc6)CC5)CC4)cc3)nc2n1-c1cccc(C(C)(C)O)n1 (stereo not shown) [Compound 70] |  |
| ≥ 7.60 | < 100 | > 75 |  | C=CCn1c(=O)c2cnc(Nc3ccc(N4CCN(CC5CCN(c6ccc7c(N8CCC(=O)NC8=O)nn(C)c7c6)CC5)CC4)cc3)nc2n1-c1ccc2c(n1)[C@@](O)(CC)CC2 [Compound 114] |  |
| ≥ 7.60 | < 100 | > 75 |  | C=CCn1c(=O)c2cnc(Nc3ccc(N4CCN(CC5CCN(c6ccc7c(N8CCC(=O)NC8=O)nn(C)c7c6)CC5)CC4)c(C)c3)nc2n1-c1ccc2c(n1)[C@](C)(O)CC2 [Compound 137] |  |
| ≥ 7.60 | < 100 | > 75 |  | C=CCn1c(=O)c2cnc(Nc3ccc(N4CCN(CC5CCN(c6ncc(NC7CCC(=O)NC7=O)cc6F)CC5)[C@H](C)C4)cc3)nc2n1-c1ccc2c(n1)[C@@](O)(CC)CC2 (stereo partly shown) [Compound 193] |  |
| ≥ 7.60 | < 100 | > 75 |  | C=CCn1c(=O)c2cnc(Nc3ccc(N4CCN(CC5CCN(c6ccc7c(N8CCC(=O)NC8=O)nn(C)c7c6)CC5)CC4)cc3)nc2n1-c1cccc(C(C)(C)O)n1 [Compound 105] |  |
| ≥ 7.60 | < 100 |  |  | C=CCn1c(=O)c2cnc(Nc3ccc(N4CCN(CC5CCN(c6ccc(NC7CCC(=O)NC7=O)cc6F)CC5)CC4)cc3)nc2n1-c1ccc2c(n1)[C@](C)(O)CC2 (single isomer, unassigned) [Compound 152-A] |  |
| ≥ 7.60 | < 100 | > 75 |  | C=CCn1c(=O)c2cnc(Nc3ccc(N4CCN(CC5CCN(c6ccc(NC7CCC(=O)NC7=O)cc6F)CC5)CC4)cc3)nc2n1-c1ccc2c(n1)[C@](C)(O)CC2 (single isomer, unassigned) [Compound 152-B] |  |
